In patent publication US20100137313A1 (ASTRAZENECA AB, priority 2008, published 2010):

These molecules were tested against S. pneumoniae Topoisomerase IV ATPase (ParE) (Streptococcus pneumoniae serotype 4, UniProt Q59961) (assay: S. pneumoniae Topoisomerase IV ATPase inhibition). Conditions: values marked * are an average of two or more data points, read-out: % Inh (13 μM) of S. pneumoniae Topoisomerase IV ATPase.
Type: biochemical
Method in brief: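 S. pneumoniae ParE (1.25 nM) ATPase with 160 μM ATP and 5 μg/ml sheared DNA in pH 8.0 Tris, Mg2+, DTT, Brij-35; phosphate detected by malachite green/molybdate at 650 nm. Normalised to 2% DMSO (0%) and 20 μM EDTA (100%); IC50 from 10 concentrations.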

S. pneumoniae Topoisomerase IV ATPase (ParE), sequence (Q59961 whole entry): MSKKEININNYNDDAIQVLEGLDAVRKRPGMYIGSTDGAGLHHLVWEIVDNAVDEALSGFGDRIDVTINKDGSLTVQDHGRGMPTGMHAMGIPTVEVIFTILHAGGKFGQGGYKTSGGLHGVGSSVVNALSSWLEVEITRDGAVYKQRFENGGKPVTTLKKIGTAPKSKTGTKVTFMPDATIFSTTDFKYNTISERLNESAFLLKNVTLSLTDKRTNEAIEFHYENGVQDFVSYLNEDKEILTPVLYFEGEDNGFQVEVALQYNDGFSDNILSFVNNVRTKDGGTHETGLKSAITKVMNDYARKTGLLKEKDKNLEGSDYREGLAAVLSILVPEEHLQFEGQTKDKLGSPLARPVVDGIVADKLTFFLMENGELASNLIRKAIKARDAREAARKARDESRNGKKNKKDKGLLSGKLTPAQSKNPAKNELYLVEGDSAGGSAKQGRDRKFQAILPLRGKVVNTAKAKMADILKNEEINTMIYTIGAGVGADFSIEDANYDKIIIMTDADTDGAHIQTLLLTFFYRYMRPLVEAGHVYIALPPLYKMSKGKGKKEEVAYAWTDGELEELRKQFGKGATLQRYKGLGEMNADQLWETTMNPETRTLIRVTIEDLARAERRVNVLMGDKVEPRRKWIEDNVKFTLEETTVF

Row | SMILES | inhibition at 13 µM
1 | COC(=O)CC(=O)c1cncc(-c2cnc(Nc3ccc(F)c(Cl)c3)nc2N2CCOCC2)c1 [Example 1039, Methyl 3-(5-(2-(3-chloro-4-fluorophenylamino)-4-morpholinopyrimidin-5-yl)pyridin-3-yl)-3-oxopropanoate] | 90%
2 | COc1cc(Nc2ncc(-c3cncc(C(=O)O)c3)c(-n3ccc(C(F)(F)F)n3)n2)cc(OC)c1 [Example 635, 5-{2-[(3,5-Dimethoxyphenyl)amino]-4-[3-(trifluoromethyl)-1H-pyrazol-1-yl]pyrimidin-5-yl}pyridine-3-carboxylic acid] | 100%
3 | Fc1ccc(Nc2ncc(-c3cncnc3)c(N3CCOCC3)n2)cc1F [Example 352] | 26.7%
4 | O=C(O)c1cccc(-c2cnc(Nc3ccc(F)c(Cl)c3)nc2-n2ccc(C(F)(F)F)n2)c1 [Example 570, 3-(2-(3-chloro-4-fluorophenylamino)-4-(3-(trifluoromethyl)-1H-pyrazol-1-yl)pyrimidin-5-yl)benzoic acid] | 91%
5 | CN1CCN(c2nc(Nc3ccc(F)c(Cl)c3)ncc2-c2cncc(C(=O)O)c2)CC1 [Example 285, 5-(2-(3-chloro-4-fluorophenylamino)-4-(4-methylpiperazin-1-yl)pyrimidin-5-yl)nicotinic acid] | 61.9%
6 | COc1cc(Nc2ncc(-c3cncc(C(=O)O)c3)c(-n3nc(C(F)F)cc3C)n2)cc(OC)c1 [Intermediate 1126, 5-(4-(3-(difluoromethyl)-5-methyl-1H-pyrazol-1-yl)-2-(3,5-dimethoxyphenylamino)pyrimidin-5-yl)nicotinic acid] | 100%
7 | O=C(O)/C=C/c1cccc(-c2cnc(Nc3ccc(F)c(Cl)c3)nc2-n2ccc(C3CC3)n2)c1 [Example 875, (E)-3-(3-(2-(3-chloro-4-fluorophenylamino)-4-(3-cyclopropyl-1H-pyrazol-1-yl)pyrimidin-5-yl)phenyl)acrylic acid] | 98%
8 | COCCCNc1nc(Nc2ccc(F)c(Cl)c2)ncc1-c1nc(-c2nccs2)cs1 [Example 502, 5-(2,4′-bi-1,3-thiazol-2′-yl)-N^2-(3-chloro-4-fluorophenyl)-N^4-(3-methoxypropyl)pyrimidine-2,4-diamine] | 10%
9 | COc1cc(Nc2ncc(-c3cnc(OC)c(C(=O)NS(C)(=O)=O)c3)c(-n3nc(C(F)(F)F)cc3C)n2)cc(OC)c1 [Example 909, 5-(2-(3,5-dimethoxyphenylamino)-4-(5-methyl-3-(trifluoromethyl)-1H-pyrazol-1-yl)pyrimidin-5-yl)-2-methoxy-N-(methylsulfonyl)nicotinamide] | 100%
10 | COc1cc(Nc2ncc(-c3cnc(OC)nc3)c(NCCc3ccncc3)n2)cc(C(F)(F)F)c1 [Example 356, 2′-methoxy-N^2-(3-methoxy-5-(trifluoromethyl)phenyl)-N^4-(2-(pyridin-4-yl)ethyl)-5,5′-bipyrimidine-2,4-diamine] | 86.5%
11 | Cc1cc(C(F)(F)F)nn1-c1nc(Nc2ccc(F)c(Cl)c2)ncc1-c1cnc(NCCN2CCOCC2)c(C(=O)O)c1 [Example 1078, 5-(2-(3-Chloro-4-fluorophenylamino)-4-(5-methyl-3-(trifluoromethyl)-1H-pyrazol-1-yl)pyrimidin-5-yl)-2-(2-morpholinoethylamino)nicotinic acid] | 100%
12 | COc1cc(Nc2ncc(-c3cnc(OC)c(C(=O)NS(=O)(=O)CCN4C(=O)CCC4=O)c3)c(-n3nc(C(F)(F)F)cc3C)n2)cc(OC)c1 [Example 848, 5-{2-[(3,5-dimethoxyphenyl)amino]-4-[5-methyl-3-(trifluoromethyl)-1H-pyrazol-1-yl]pyrimidin-5-yl}-N-{[2-(2,5-dioxopyrrolidin-1-yl)ethyl]sulfonyl}-2-methoxypyridine-3-carboxamide] | 100%
13 | O=C(O)c1cncc(-c2cnc(Nc3ccc(F)c(Cl)c3)nc2NCc2ccccn2)c1 [Example 222, 5-{2-(3-Chloro-4-fluoro-phenylamino)-4-[(pyridin-2-ylmethyl)-amino]-pyrimidin-5-yl]-nicotinic acid] | 76.2%
14 | CCOC(=O)/C=C/c1cccc(-c2cnc(Nc3ccc(F)c(Cl)c3)nc2N2CCCCC2)c1 [Example 171, (E)-ethyl 3-(3-(2-(3-chloro-4-fluorophenylamino)-4-(piperidin-1-yl)pyrimidin-5-yl)phenyl)acrylate] | 3.62%
15 | NC(=O)c1cncc(-c2cnc(Nc3ccc(F)c(Cl)c3)nc2NCCc2c[nH]cn2)c1 [Example 472, 5-(2-[(3-chloro-4-fluorophenyl)amino]-4-{[2-(1H-imidazol-4-yl)ethyl]amino}pyrimidin-5-yl)-pyridine-3-carboxamide] | 100%
16 | CONC(=O)c1cncc(-c2cnc(Nc3ccc(F)c(Cl)c3)nc2NCCc2ccncc2)c1 [Example 477, 5-(2-[(3-chloro-4-fluorophenyl)amino]-4-{[2-(pyridin-4-yl)ethyl]amino}pyrimidin-5-yl)-N-methoxypyridine-3-carboxamide] | 100%

Row | SMILES | inhibition at 13 µM
17 | COc1ncc(-c2cnc(Nc3ccc(F)c(Cl)c3)nc2NCc2cnn(C)c2C)cn1 [Example 469, N2-(3-chloro-4-fluorophenyl)-N4-((1,5-dimethyl-1H-pyrazol-4-yl)methyl)-2′-methoxy-5,5′-bipyrimidine-2,4-diamine] | 64%
18 | O=C(O)/C=C/c1cncc(-c2cnc(Nc3ccc(F)c(Cl)c3)nc2-n2ccc(C(F)(F)F)n2)c1 [Example 1156, (E)-3-(5-(2-(3-chloro-4-fluorophenylamino)-4-(3-(trifluoromethyl)-1H-pyrazol-1-yl)pyrimidin-5-yl)pyridin-3-yl)acrylic acid] | 88%
19 | COc1ncc(-c2cnc(Nc3ccc(F)c(Cl)c3)nc2NCCc2cccnc2)cn1 [Example 460, N^2-(3-chloro-4-fluorophenyl)-2′-methoxy-N^4-[2-(pyridin-3-yl)ethyl]-5,5′-bipyrimidine-2,4-diamine] | 100%
20 | COc1cc(Nc2ncc(-c3cnc(OC)c(C(=O)NS(=O)(=O)c4cccc(C(C)=O)c4)c3)c(-n3nc(C(F)(F)F)cc3C)n2)cc(OC)c1 [Example 844, N-[(3-acetylphenyl)sulfonyl]-5-{2-[(3,5-dimethoxyphenyl)amino]-4-[5-methyl-3-(trifluoromethyl)-1H-pyrazol-1-yl]pyrimidin-5-yl}-2-methoxypyridine-3-carboxamide] | 100%
21 | CN(C)CCCNc1nc(Nc2ccc(F)c(Cl)c2)ncc1-c1ccc(N)nc1 [Example 21, 5-(6-aminopyridin-3-yl)-N^2-(3-chloro-4-fluorophenyl)-N^4-[3-(dimethylamino)propyl]pyrimidine-2,4-diamine] | 71.7%
22 | COc1cc(Nc2ncc(-c3cccc(/C=C/C(=O)O)c3)c(NCCc3ccncc3)n2)cc(OC)c1 [Example 353, (E)-3-(3-(2-(3,5-dimethoxyphenyl-amino)-4-(2-(pyridin-4-yl)ethylamino)pyrimidin-5-yl)phenyl) acrylic acid] | 83.9%
23 | CS(=O)(=O)CCOc1ncc(-c2cnc(Nc3ccc(F)c(Cl)c3)nc2-n2ccc(C(F)(F)F)n2)cc1C(=O)O [Example 966, 5-(2-(3-chloro-4-fluorophenylamino)-4-(3-(trifluoromethyl)-1H-pyrazol-1-yl)pyrimidin-5-yl)-2-(2-(methylsulfonyl)ethoxy)nicotinic acid] | 100%
24 | COCCCNc1nc(Nc2ccc(F)c(Cl)c2)ncc1-c1ccc2cc(C(=O)OC)[nH]c2c1 [Example 1051, methyl 6-(2-(3-chloro-4-fluorophenylamino)-4-(3-methoxypropylamino)pyrimidin-5-yl)-1H-indole-2-carboxylate] | 0%
25 | O=C(O)/C=C/c1cccc(-c2cnc(Nc3ccc(F)c(Cl)c3)nc2N2CCOCC2)c1 [Example 290, (E)-3-(3-(2-(3-chloro-4-fluorophenylamino)-4-morpholinopyrimidin-5-yl)phenyl)acrylic acid] | 80.5%
26 | CONC(=O)/C=C/c1cccc(-c2cnc(Nc3ccc(F)c(Cl)c3)nc2N2CCOCC2)c1 [Example 376, (E)-3-(3-(2-(3-chloro-4-fluorophenylamino)-4-morpholinopyrimidin-5-yl)phenyl)-N-methoxyacrylamide] | 87.2%
27 | COCCn1cc(C(=O)O)c(=O)c2cc(-c3cnc(Nc4ccc(F)c(Cl)c4)nc3N3CCOCC3)ccc21 [Example 303, 6-(2-(3-chloro-4-fluorophenylamino)-4-morpholinopyrimidin-5-yl)-1-(2-methoxyethyl)-4-oxo-1,4-dihydroquinone-3-carboxylic acid] | 82%
28 | COc1c(C(=O)O)cccc1-c1cnc(Nc2ccc(F)c(Cl)c2)nc1-n1ccc(C(F)(F)F)n1 [Example 1139, 3-(2-(3-chloro-4-fluorophenylamino)-4-(3-(trifluoromethyl)-1H-pyrazol-1-yl)pyrimidin-5-yl)-2-methoxybenzoic acid] | 96%
29 | O=C(O)c1cc2cc(-c3cnc(Nc4ccc(F)c(Cl)c4)nc3N3CCOCC3)ccc2s1 [Example 306, 5-(2-(3-chloro-4-fluorophenylamino)-4-morpholinopyrimidin-5-yl)benzo[b]thiophene-2-carboxylic acid] | 84.8%
30 | O=C(O)c1cncc(-c2cnc(Nc3ccc(F)c(Cl)c3)nc2N2CCC(N3CCOCC3)CC2)c1 [Example 246, 5-[2-[(3-chloro-4-fluorophenyl)amino]-4-(4-morpholin-4-ylpiperidin-1-yl)pyrimidin-5-yl]pyridine-3-carboxylic acid] | 74.9%
31 | CCOC(=O)c1cncc(-c2cnc(Nc3ccc(F)c(Cl)c3)nc2N2CCCC(CO)C2)c1 (stereo not shown) [Example 118, ethyl 5-[2-[(3-chloro-4-fluorophenyl)amino]-4-[3-(hydroxymethyl)piper-idin-1-yl]pyrimidin-5-yl]pyridine-3-carboxylate] | 80.6%
